Here are results for 19 compounds from patent US20090318493A1 (Roche Palo Alto LLC, priority 2008, published 2009).

Broadly, the pIC50 is the negative decadic logarithm of the IC50, by convention in mol/L. A high value points to a small IC50.

Holding throughout (type): binding
For one test, the target named is T1, hSERT transporter (Homo sapiens, UniProt P31645).
T1 construct: expressed in transfected cells; membranes prepared
As to the kind of experiment: Human serotonin transporter (hSERT) scintillation proximity assay, competition with [3H]-Citalopram. The following applies: for IC50: Table 1, read-out: pIC50 SERT (converted). From the text: Screening for Human Serotonin Transporter (hSERT) Antagonists Using a Scintillation Proximity Assay (SPA)
The screening assay of this example was used to determine the affinity of ligands at the hSERT transporter by competition with [^3H]-Citalopram.
Scintillation Proximity Assay (SPA) works by bringing radioligand within close proximity to the bead's scintillant to stimulate light emission. In this assay, the receptor-containing membranes were pre-coupled to the SPA beads and the binding of the appropriate radioligand to the transporter was measured. The light emission was proportional to the amount of bound radioligand. Unbound radioligand produced no signal as a result of distant proximity to scintillant (lack of energy transfer).
Cells are released from culture flasks using PBS for 1-2 minutes. The cells were subsequently centrifuged at 1000 g's for 5 minutes and resuspended in PBS prior to being used in the membrane preparation.
(§1) Cell membranes were prepared using a membrane preparation buffer of 50 mM TRIS (pH 7.4). Cell membranes were prepared from a single cube (7.5×10^9 cells total). Cells were homogenized using a Polytron (setting medium for a 4 second burst). The homogenate was then centrifuged at 48,000×g for 15 minutes, the supernatant subsequently removed and discarded, and the pellet resuspended with fresh buffer. After a second centrifugation, the pellet was re-homogenized and brought to a final volume determined during the assay. Typically, membrane portions were aliquoted in 3 mg/ml (w:v). and stored at −80° C.
Compounds of the invention were diluted from 10 mM to 0.1 nM FAC (10 point curves, whole log/half log dilutions) via a Beckman Biomek 2000 using a serial dilution protocol. The test compounds were then transferred (20 μl/well) and the [^3H]-Citalopram radioligand was added at 50 μl/well. Membrane and beads were prepared to a ratio of 10 μg: 0.7 mg, with 0.7 mg PVT-WGA Amersham beads (Cat# RPQ0282V) added per well. 130 μl of the membrane: bead mixture was added to the assay plate.
The % inhibition was calculated for each compound tested [(Compound counts per minute (CPM) at maximum concentration-Non-Specific CPM)/Total CPM*100].
(§2) where max=total binding, min=non specific binding, x=concentration (M) of the tested compound and n=Hill slope. The inhibition dissociation constant (Ki) of each compound was determined according to the method of Cheng-Prusoff and then converted into negative logarithm (pKi) of the Ki.
In general terms: Scintillation proximity formats need no separation of bound from free tracer.

The target in a further test is T2, hNET transporter (Homo sapiens, UniProt P23975).
T2 construct: expressed in transfected cells; membranes prepared
Put plainly: Human norepinephrine transporter (hNET) scintillation proximity assay, competition with [3H]-Nisoxetine. The following applies: for IC50: Table 1, read-out: pIC50 NET (converted). The method, then:
This assay was used to determine the affinity of ligands for the hNET transporter by competition with [^3H]-Nisoxetine. As in the hSERT assay of the above example, receptor-containing membranes were pre-coupled to the SPA beads and the binding of the appropriate radioligand to the transporter was measured. The light emission was proportional to the amount of bound radioligand, with unbound radioligand producing no signal.
HEK-293 cells (Tatsumi et al., Eur. J. Pharmacol. 1997, 30, 249-258) stably expressing recombinant hNET (Clone: HEK-hNET #2) were maintained with media (DMEM hi glucose with 10% FBS, 300 μg/ml G418 and 2 mM L-Glutamine) and incubated at 37° C. with 5% CO2. Cells were released from culture flasks using PBS for 1-2 minutes. The cells were subsequently centrifuged at 1000 g's for 5 minutes and resuspended in PBS prior to being used in the membrane preparation.
as §1, with “(7.5×10^9cells” for “(7.5×10^9 cells”, “3-6 mg/mil” for “3 mg/ml”
^3[H] […] Compounds of the invention were diluted from 10 mM to 0.1 nM FAC (10 point curves, whole log /half log dilutions) via a Beckman Biomek 2000 using a serial dilution protocol. The test compounds were then transferred (20 μl/well) and the radioligand was added at 50 μl/well. Membrane and beads were prepared to a ratio of 10 μg: 0.7 mg, with 0.7 mg PVT-WGA Amersham beads (Cat# RPQ0282V) added per well. 130 μl of the membrane: bead mixture was added to the assay plate. The mixtures were allowed to stand at room temperature for one hour, and were then counted on a Packard TopCount LCS, a generic SPA counting protocol settings (Energy Range: Low, Efficiency Mode: Normal, Region A: 1.50-35.00, Region B: 1.50-256.00, Count Time (min.): 0.40, Background Subtract: none, Half-Life Correction: no, Quench Indicator: tSIS, Platemap blank subtraction: No, Cross talk reduction: Off).
The % inhibition was calculated for each compound tested [(Compound CPM at maximum concentration-Non-Specific CPM)/Total CPM*100]. The concentration producing 50% inhibition (IC50) was determined using an iterative non-linear curve fitting technique with Activity Base/Xlfit using the following equation:
as §2

Another test concerns the target T3, hDAT (Homo sapiens, UniProt Q01959).
T3 construct: expressed in transfected cells; plated whole cells
As to the kind of experiment: Human dopamine transporter scintillation proximity assay, competition with [3H]-Vanoxerine. The following applies: for IC50: Table 1, read-out: pIC50 DAT (converted). The procedure:
This assay was used to determine the affinity of ligands for the dopamine transporter by competition with [^3H]-Vanoxerine.
Cells were plated four hours prior to experiment by placing approximately 30,000 cells per well (in PBS) on white, opaque Cell-Tak coated 96 well plates. Extra buffer was apriated from the cell plates using an ELx405 plate washer.
Compounds of the invention were diluted from 10 mM to 0.1 nM FAC (10 point curves, whole log/half log dilutions) via a Beckman Biomek 2000 using a 10-point dilution protocol. The mixtures were allowed to stand at room temperature for 30 minutes, and were then counted on a Packard TopCount LCS, a generic SPA counting protocol settings, Count Time (min.): 0.40, Background Subtract: none, Half-Life Correction: none, Quench Indicator: tSIS, Platemap blank subtraction: none, Cross talk reduction: Off).
The % inhibition was calculated for each compound tested [(Compound CPM at maximum concentration-Non-Specific CPM)/Total CPM*100].
as §2

pIC50: −log10 of the molar value. Where two headings read alike, the source gives them in different places.

T2 sequence (P23975 whole entry): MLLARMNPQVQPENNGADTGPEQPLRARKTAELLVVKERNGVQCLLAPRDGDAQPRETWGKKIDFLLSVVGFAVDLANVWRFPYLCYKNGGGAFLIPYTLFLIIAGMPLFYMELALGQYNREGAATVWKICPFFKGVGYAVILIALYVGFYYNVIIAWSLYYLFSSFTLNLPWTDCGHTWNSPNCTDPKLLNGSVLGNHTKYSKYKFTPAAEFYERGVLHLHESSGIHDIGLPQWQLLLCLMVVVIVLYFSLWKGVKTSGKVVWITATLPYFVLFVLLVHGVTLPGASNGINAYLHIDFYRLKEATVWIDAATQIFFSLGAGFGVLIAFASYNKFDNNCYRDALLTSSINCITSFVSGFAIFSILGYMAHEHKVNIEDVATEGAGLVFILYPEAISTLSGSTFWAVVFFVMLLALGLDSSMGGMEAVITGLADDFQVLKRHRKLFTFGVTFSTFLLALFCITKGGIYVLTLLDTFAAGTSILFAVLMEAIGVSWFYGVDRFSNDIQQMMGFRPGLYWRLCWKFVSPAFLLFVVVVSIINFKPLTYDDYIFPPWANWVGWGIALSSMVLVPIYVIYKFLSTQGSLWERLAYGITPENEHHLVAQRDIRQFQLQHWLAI
T3 sequence (Q01959 whole entry): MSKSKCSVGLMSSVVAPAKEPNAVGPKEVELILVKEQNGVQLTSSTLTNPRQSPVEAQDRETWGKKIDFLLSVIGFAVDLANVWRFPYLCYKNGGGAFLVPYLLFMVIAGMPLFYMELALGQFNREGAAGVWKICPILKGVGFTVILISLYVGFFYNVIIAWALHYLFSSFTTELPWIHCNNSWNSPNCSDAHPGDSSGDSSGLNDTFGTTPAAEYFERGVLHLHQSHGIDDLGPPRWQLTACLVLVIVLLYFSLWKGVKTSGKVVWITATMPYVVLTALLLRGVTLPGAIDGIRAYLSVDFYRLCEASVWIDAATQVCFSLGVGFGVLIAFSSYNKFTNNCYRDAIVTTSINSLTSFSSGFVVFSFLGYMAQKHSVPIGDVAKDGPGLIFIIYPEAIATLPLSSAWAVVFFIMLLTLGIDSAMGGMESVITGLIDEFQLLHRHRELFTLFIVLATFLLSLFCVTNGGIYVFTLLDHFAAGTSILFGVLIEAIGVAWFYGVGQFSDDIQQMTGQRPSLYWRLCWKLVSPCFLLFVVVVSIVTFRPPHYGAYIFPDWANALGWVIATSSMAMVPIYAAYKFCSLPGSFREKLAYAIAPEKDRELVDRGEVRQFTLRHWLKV
T1 sequence (P31645 whole entry): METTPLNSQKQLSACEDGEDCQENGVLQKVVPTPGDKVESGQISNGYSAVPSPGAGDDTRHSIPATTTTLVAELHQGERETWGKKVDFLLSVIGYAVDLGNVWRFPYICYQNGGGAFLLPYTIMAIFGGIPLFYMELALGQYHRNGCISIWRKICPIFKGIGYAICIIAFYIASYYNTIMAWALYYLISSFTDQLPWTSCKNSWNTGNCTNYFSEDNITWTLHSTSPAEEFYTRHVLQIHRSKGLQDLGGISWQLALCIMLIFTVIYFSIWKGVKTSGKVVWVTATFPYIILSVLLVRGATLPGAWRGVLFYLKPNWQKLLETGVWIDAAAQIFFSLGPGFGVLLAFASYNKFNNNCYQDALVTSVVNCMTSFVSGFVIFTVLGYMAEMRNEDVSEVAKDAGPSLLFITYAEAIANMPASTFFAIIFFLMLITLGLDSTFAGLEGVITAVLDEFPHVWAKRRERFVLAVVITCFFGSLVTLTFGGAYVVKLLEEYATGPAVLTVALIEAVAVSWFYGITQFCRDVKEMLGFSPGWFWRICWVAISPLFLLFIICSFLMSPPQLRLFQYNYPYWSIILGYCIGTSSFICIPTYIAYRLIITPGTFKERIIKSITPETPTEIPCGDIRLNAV

For the compound `CC(C)(C)CCC1(C(=O)c2cc(Cl)c(N)c(C(F)(F)F)c2)CCNC1` (stereo not drawn) [Compound 7, (4-Amino-3-chloro-5-trifluoromethyl-phenyl)-[3-(3,3-dimethyl-butyl)-pyrrolidin-3-yl]-methanone], the negative logarithm of the IC50 (pIC50) at hSERT transporter was 7.42; at hNET transporter, 7.80. Also, the IC50 on hDAT is 955 nM.
Turning to `CC(C)(C)CCC1(C(=O)c2ccc(Cl)c(Oc3ccc(F)cc3)c2)CCNC1` (stereo not drawn) [Compound 8, [4-Chloro-3-(4-fluoro-phenoxy)-phenyl]-[3-(3,3-dimethyl-butyl)-pyrrolidin-3-yl]-methanone], the IC50 at hSERT transporter was 120 nM; at hNET transporter, 77.6 nM; at hDAT, 1410 nM.
Regarding `CCCC1(C(=O)c2ccc(Cl)c(OCCC(C)(C)C)c2)CCNC1` (stereo not drawn) [Compound 11, [4-Chloro-3-(3,3-dimethyl-butoxy)-phenyl]-(3-propyl-pyrrolidin-3-yl)-methanone], on hSERT transporter, the pIC50 was 7.28. Further, the IC50 on hNET transporter is 631 nM; at hDAT, 1480 nM.
Regarding `CC(C)CCC1(C(=O)c2ccc(Cl)c(Oc3ccccc3)c2)CCNC1` (stereo not drawn) [Compound 12], the negative logarithm of the IC50 (pIC50) on hSERT transporter is 7.36; on hNET transporter it was 7.92. The IC50 on hDAT was 1480 nM.
With `CCCC1(C(=O)c2ccc(Cl)c(Sc3ccccc3)c2)CCNC1` (stereo not drawn) [Compound 15, (4-Chloro-3-phenylsulfanyl-phenyl)-(3-propyl-pyrrolidin-3-yl)-methanone], the figures for the pIC50 on hSERT transporter and on hNET transporter were 7.46 and 7.06, respectively. At hDAT, the IC50 was 110 nM.
`CCCC1(C(=O)c2ccc(Cl)c(S(=O)(=O)c3ccccc3)c2)CCNC1` (stereo not drawn) [Compound 16, (3-Benzenesulfonyl-4-chloro-phenyl)-(3-propyl-pyrrolidin-3-yl)-methanone]: the IC50 at hSERT transporter is 191 nM; on hNET transporter, 4900 nM; at hDAT, 661 nM.
For the compound `CCCC1(C(=O)c2ccc(Cl)c(Oc3ccccc3F)c2)CCNC1` (stereo not drawn) [Compound 17, [4-Chloro-3-(2-fluoro-phenoxy)-phenyl]-(3-propyl-pyrrolidin-3-yl)-methanone], the negative-log IC50 (pIC50) was 7.32 at hSERT transporter and 7.80 on hDAT. Besides, the IC50 at hNET transporter is 24 nM.
The matching figures for `CCCC1(C(=O)c2ccc(Cl)c(Oc3ccc(F)cc3)c2)CCNC1` (stereo not drawn) [Compound 18, [4-Chloro-3-(4-fluoro-phenoxy)-phenyl]-(3-propyl-pyrrolidin-3-yl)-methanone]: 7.62, 7.78 and 15.1 nM.
On to `CCC1(C(=O)c2ccc(Cl)c(Oc3ccccc3)c2)CCNC1` (stereo not drawn) [Compound 19, (4-Chloro-3-phenoxy-phenyl)-(3-ethyl-pyrrolidin-3-yl)-methanone], for which the figures for the pIC50 on hSERT transporter and at hDAT were 7.24 and 8.12, respectively. The IC50 at hNET transporter is 26.3 nM.
On to `CC(C)CC[C@@]1(C(=O)c2cc(F)c(N)c(Cl)c2)CCNC1` [Compound 21, (4-Amino-3-chloro-5-fluoro-phenyl)-[(R)-3-(3-methyl-butyl)-pyrrolidin-3-yl]-methanone], for which the pIC50 on hSERT transporter was 8.48; on hDAT, 8.82. Further, the IC50 on hNET transporter is 1.91 nM.
Regarding `CC(C)CC[C@]1(C(=O)c2cc(F)c(N)c(Cl)c2)CCNC1` [Compound 22, (4-Amino-3-chloro-5-fluoro-phenyl)-[(S)-3-(3-methyl-butyl)-pyrrolidin-3-yl]-methanone], on hSERT transporter, the IC50 was 132 nM. The pIC50 was 7.48 on hNET transporter and 7.08 on hDAT.
Consider `CC(C)C[C@@]1(C(=O)c2cc(F)c(N)c(Cl)c2)CCNC1` [Compound 23], for which the values for the pIC50 on hSERT transporter and at hDAT were 8.32 and 8.21, respectively. Moreover, at hNET transporter, the IC50 was 3.98 nM.
For the compound `CC(C)(C)CC[C@]1(C(=O)c2cc(F)c(N)c(Cl)c2)CCNC1` [Compound 25, (4-Amino-3-chloro-5-fluoro-phenyl)-[(S)-3-(3,3-dimethyl-butyl)-pyrrolidin-3-yl]-methanone], the pIC50 at hSERT transporter is 8.76; at hDAT, 9.26. In addition, the IC50 on hNET transporter is 0.977 nM.
The matching figures for `CC(C)(C)CC[C@@]1(C(=O)c2cc(F)c(N)c(Cl)c2)CCNC1` [Compound 26, (4-Amino-3-chloro-5-fluoro-phenyl)-[(R)-3-(3,3-dimethyl-butyl)-pyrrolidin-3-yl]-methanone]: 7.12, 7.57 and 25.1 nM.
Take `CC(C)C[C@@]1(C(=O)c2ccc(N)c(Cl)c2)CCNC1` [Compound 27, (4-Amino-3-chloro-phenyl)-((R)-3-isobutyl-pyrrolidin-3-yl)-methanone]: the negative-log IC50 (pIC50) is 8.08 on hSERT transporter and 7.26 at hNET transporter. Also, at hDAT, the IC50 was 174 nM.
Turning to `CC(C)C[C@]1(C(=O)c2ccc(N)c(Cl)c2)CCNC1` [Compound 28, (4-Amino-3-chloro-phenyl)-((S)-3-isobutyl-pyrrolidin-3-yl)-methanone], the negative-log IC50 (pIC50) at hSERT transporter was 9.93; at hDAT it was 9.08. The IC50 on hNET transporter is 3.02 nM.
The matching figures for `CC(C)CC1(C(=O)c2ccc(Cl)c(Oc3ccccc3)c2)CCNC1` (stereo not drawn) [Compound 31, (4-Chloro-3-phenoxy-phenyl)-(3-isobutyl-pyrrolidin-3-yl)-methanone]: 8.43, 7.58 and 1.91 nM.
On to `CCCC1(C(=O)c2ccc(Cl)c(Oc3ccc(C(F)(F)F)cc3)c2)CCNC1` (stereo not drawn) [Compound 32, [4-Chloro-3-(4-trifluoromethyl-phenoxy)-phenyl]-(3-propyl-pyrrolidin-3-yl)-methanone], for which the IC50 at hSERT transporter was 166 nM; at hNET transporter, 200 nM; at hDAT, 331 nM.
The matching figures for `CC1(CC2(C(=O)c3ccc(Cl)c(Cl)c3)CCNCC2)CC1` [Compound 34, (3,4-Dichloro-phenyl)-[4-(1-methyl-cyclopropylmethyl)-piperidin-4-yl]-methanone]: 0.501 nM, 66.1 nM and 2.24 nM.
